Results taken from ChEMBL document CHEMBL1127965, “Synthesis of novel monocyclic squalestatin analogues as potential inhibitors of squalene synthase” (Bioorg Med Chem Lett, 1994).

Target: T1, Squalene synthase (Rattus norvegicus, UniProt Q02769)
T1 sequence (Q02769 whole entry): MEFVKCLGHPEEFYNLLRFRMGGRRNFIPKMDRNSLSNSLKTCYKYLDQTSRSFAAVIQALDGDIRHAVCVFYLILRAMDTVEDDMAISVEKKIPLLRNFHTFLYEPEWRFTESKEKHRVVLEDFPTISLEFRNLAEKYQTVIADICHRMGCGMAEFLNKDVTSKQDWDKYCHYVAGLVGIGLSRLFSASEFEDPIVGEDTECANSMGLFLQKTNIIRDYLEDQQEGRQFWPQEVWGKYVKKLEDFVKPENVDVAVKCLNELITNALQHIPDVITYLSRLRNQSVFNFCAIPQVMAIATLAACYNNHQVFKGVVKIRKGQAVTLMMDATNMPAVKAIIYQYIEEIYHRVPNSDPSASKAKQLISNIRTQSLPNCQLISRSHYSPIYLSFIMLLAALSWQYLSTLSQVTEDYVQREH
Test: In vitro inhibitory activity against rat liver squalene synthase

Row | IC50 [µM] | Structure (SMILES)
1 | 0.057 | C=C(CCC12CCC(C(=O)O)(O1)C(O)(C(=O)O)C(C(=O)O)O2)[C@@H](OC(C)=O)[C@H](C)Cc1ccccc1 (some centres not stated)
2 | 8 | O=C(O)C1OC(CCCCCCc2ccccc2)OC(C(=O)O)C1(O)C(=O)O (configuration not stated)
